Test results taken from patent US8536187B2 (Gilead Sciences, Inc., priority 2008, dated 2013).

Key:
[1] = CC50 assay (CellTiter-Glo) in Huh-7 HCV replicon cells; assay type: cell-based; conditions: human
Procedure: (§1) The anti-HCV activity of the pyrido[3,2-d]pyrimidine derivatives of this invention was tested in a human hepatoma Huh-7 cell line harboring a HCV replicon. The assay comprised the following steps: • Step 1: compound preparation and serial dilution: serial dilution is performed in 50% DMSO in a 384-well plate. A solution containing a compound at 100-fold concentration of the starting final serial dilution concentration was prepared in 50% DMSO and added to the pre-specified wells in column 1 of a polypropylene 384-well plate. The plate was then placed on a Precision 2000 Workstation to start the serial dilution. After the serial dilution, a volume of 2 μL of the solution was transferred from the 384-well plate to a 96-well cell culture plate containing 100 μL of cell media on a Biomek FX Workstation. The DMSO concentration in the final assay condition was 0.5% after cells are added to the plate and the total volume in each well is brought to 200 μL. • Step 2: to each well of the serial dilution plate prepared above, 100 μL of cell media containing 6000 suspended Huh-7 HCV replicon cells was added with a Multidrop workstation. The plates were incubated for 3 days at 37° C. with 5% CO2. • Step 3: detection: • a) for the EC50 assay, the media in a 96-well cell culture plate was aspirated with a Biotek EL405 plate-washer. A volume of 200 μL of a solution containing a 1:1 mixture of cell-lysis buffer (Promega, Luciferase Cell Culture Lysis 5× Reagent, cat. #E1531) and luciferase substrate solution (Promega, Luciferase Assay, cat.# E4550) was added to each well of the plate with Multidrop. The plate was incubated for 30 minutes at room temperature before the luminescence signal was measured with a TopCount plate-reader. • b) for the CC50 assay, a volume of 100 μL of pre-mixed CellTiter-Glo (Promega, cat.# G7572) solution is added directly to the cell culture in each well of the plate and the luminescence signal is measured with a TopCount plate-reader after 10 minutes of incubation at room temperature.

[2] = tested on: HCV replicon in human hepatoma Huh-7 cell line; assay: Anti-HCV replicon assay, EC50 (luciferase luminescence); assay type: cell-based; conditions: Hepatitis C virus, Huh-7, 72 h
Procedure: as §1

| SMILES | CC50 at 3 days ([1]; Table 2, 3 days incubation) | EC50 [2] | CC50 at 3 days ([1]; Table 1, 3 days incubation) |
| --- | --- | --- | --- |
| C#Cc1ccc2nc(N[C@H](C)c3ccc(S(N)(=O)=O)cc3)nc(NCC(F)(F)F)c2n1 [Example 284, (R)-4-(1-(6-ethynyl-4-(2,2,2-trifluoroethylamino)pyrido [3,2-d]pyrimidin-2-ylamino)ethyl)benzenesulfonamide] | > 10 µM | < 0.1 µM |  |
| N#Cc1cc(F)ccc1-c1ccc2nc(NCc3cccc(S(N)(=O)=O)c3)nc(NC3(C(F)(F)F)CC3)c2n1 [Example 98, 3-((6-(2-cyano-4-fluorophenyl)-4-(1-(trifluoromethyl)cyclopropyl-amino)pyrido[3,2-d]pyrimidin-2-ylamino)methyl)benzene-sulfonamide] | 1 to 10 µM | < 0.1 µM |  |
| CC(C)Oc1ccc(-c2ccc3nc(NCc4ccc(-n5cccn5)cc4)nc(NCC(F)(F)F)c3n2)cn1 [Example 242, N^2-(4-(1H-pyrazol-1-yl)benzyl)-6-(6-isopropoxypyridin-3-yl)-N^4-(2,2,2-trifluoroethyl)pyrido [3,2-d]pyrimidine-2,4-diamine] | 1 to 10 µM | < 0.1 µM |  |
| Cc1ccc(-c2ccc3nc(NCc4ccc(-n5cncn5)cc4)nc(NC4(C(F)(F)F)CC4)c3n2)cc1S(N)(=O)=O [Example 42, 5-(2-(4-(1H-1,2,4-triazol-1-yl)benzylamino)-4-(1-(trifluoromethyl)cyclopropyl-amino)pyrido[3,2-d]pyrimidin-6-yl)-2-methylbenzene-sulfonamide] | 1 to 10 µM | < 0.1 µM |  |
| COc1ccc(-c2ccc3nc(NCc4cccc(-n5cccn5)c4)nc(NCC(F)(F)F)c3n2)cc1S(C)(=O)=O [Example 140, N^2-(3-(1H-pyrazol-1-yl)benzyl)-6-(4-methoxy-3-(methylsulfonyl)phenyl)-N^4-(2,2,2-trifluoroethyl)pyrido [3,2-d]pyrimidine-2,4-diamine] | 1 to 10 µM | < 0.1 µM |  |
| CC#Cc1ccc2nc(N[C@H](C)c3ccc(S(N)(=O)=O)cc3)nc(OC3CCC3)c2n1 [Example 310, (R)-4-(1-(4-cyclobutoxy-6-(prop-1-ynyl)pyrido[3,2-d]pyrimidin-2-ylamino)ethyl) benzenesulfonamide] | > 10 µM | < 0.1 µM |  |
| C[C@@H](Nc1nc(NCC(F)(F)F)c2nc(-c3cccc(S(C)(=O)=O)c3)ccc2n1)c1ccc(S(=O)(=O)NC(C)(C)C)cc1 [Example 136, N-tert-butyl-4-((R)-1-(6-(3-(methylsulfonyl)phenyl)-4-(2,2,2-trifluoroethylamino)pyrido[3,2-d]pyrimidin-2-ylamino)ethyl)benzene-sulfonamide] | > 10 µM | < 0.1 µM |  |
| C[C@@H](Nc1nc(NC2(C(F)(F)F)CCC2)c2nc(-c3ccc(F)cc3)ccc2n1)c1ccc(S(N)(=O)=O)cc1 [Example 72, (R)-4-(1-(6-(4-fluorophenyl)-4-(1-(trifluoromethyl)cyclo-butylamino)pyrido[3,2-d]pyrimidin-2-ylamino)ethyl) benzenesulfonamide] | > 10 µM | 0.25 to 2 µM |  |
| COc1ccc(-c2ccc3nc(NCc4cccc(-n5cncn5)c4)nc(NC4(C(F)(F)F)CC4)c3n2)cc1S(C)(=O)=O [Example 39, N^2-(3-(1H-1,2,4-triazol-1-yl)benzyl)-6-(4-methoxy-3-(methylsulfonyl)phenyl)-N^4-(1-(trifluoromethyl)cyclopropyl) pyrido[3,2-d]pyrimidine-2,4-diamine] | > 10 µM | < 0.1 µM |  |
| C[C@@H](Nc1nc(O[C@@H]2C[C@@H]3C[C@@H]3C2)c2nc(C#CC3CC3)ccc2n1)c1ccc(S(N)(=O)=O)cc1 [Example 299, 4-((R)-1-(4-((1S,3r,5R)-bicyclo [3.1.0]hexan-3-yloxy)-6-(2-cyclopropylethynyl)pyrido [3,2-d]pyrimidin-2-ylamino)ethyl)benzenesulfonamide] | 1 to 10 µM | < 0.1 µM |  |
| COc1ccc(-c2ccc3nc(NCc4ccc(C)c(F)c4)nc(NCC(F)(F)F)c3n2)cc1S(C)(=O)=O [Example 176, N^2-(3-fluoro-4-methylbenzyl)-6-(4-methoxy-3-(methylsulfonyl)phenyl)-N^4-(2,2,2-trifluoroethyl) pyrido[3,2-d]pyrimidine-2,4-diamine] | 1 to 10 µM | < 0.1 µM |  |
| C[C@@H](Nc1nc(NC2(C(F)(F)F)CC2)c2nc(-c3ccc(N)nc3)ccc2n1)c1ccc(-n2cncn2)cc1 [Example 84, N^2-((R)-1-(4-(1H-1,2,4-triazol-1-yl)phenyl)ethyl)-6-(6-aminopyridin-3-yl)-N^4-(1-(trifluoromethyl)cyclopropyl) pyrido[3,2-d]pyrimidine-2,4-diamine] | 1 to 10 µM | < 0.1 µM |  |
| CC1(Oc2nc(NCc3ccc(-n4cncn4)cc3)nc3ccc(-c4cnc(OC5CC5)nc4)nc23)CC1 [Example 257, N-(4-(1H-1,2,4-triazol-1-yl)benzyl)-6-(2-cyclopropoxy-pyrimidin-5-yl)-4-(1-methyl-cyclopropoxy)pyrido[3,2-d] pyrimidin-2-amine] | 1 to 10 µM | < 0.1 µM |  |
| C[C@@H](Nc1nc(NC2(C(F)(F)F)CC2)c2nc(-c3ccc(F)cc3)ccc2n1)c1ccc(S(N)(=O)=O)cc1 [Example 24, (R)-4-{1-[6-(4-fluorophenyl)-4-(1-trifluoromethyl-cyclopropylamino)-pyrido[3,2-d]pyrimidin-2-ylamino]-ethyl}-benzenesulfonamide] | > 10 µM | < 0.1 µM |  |
| CC(C)Oc1ccc(-c2ccc3nc(NCc4ccc(-n5cncn5)cc4)nc(NCC(F)(F)F)c3n2)cn1 [Example 240, N^2-(4-(1H-1,2,4-triazol-1-yl)benzyl)-6-(6-isopropoxy-pyridin-3-yl)-N^4-(2,2,2-trifluoroethyl)pyrido[3,2-d] pyrimidine-2,4-diamine] | > 10 µM | < 0.1 µM |  |
| C[C@@H](Nc1nc(OC2CCC2)c2nc(C#CC3CC3)ccc2n1)c1ccc(S(N)(=O)=O)cc1 [Example 305, (R)-4-(1-(4-cyclobutoxy-6-(2-cyclopropylethynyl)pyrido [3,2-d]pyrimidin-2-ylamino)ethyl)benzenesulfonamide] | > 10 µM | < 0.1 µM |  |
| C[C@H](Cn1cncn1)Nc1nc(NCC(F)(F)F)c2nc(C#CC3CC3)ccc2n1 [Example 281, (R)-N^2-(1-(1H-1,2,4-triazol-1-yl)propan-2-yl)-6-(2-cyclopropyl-ethynyl)-N^4-(2,2,2-trifluoro-ethyl)pyrido[3,2-d]pyrimidine-2,4-diamine] | > 10 µM | 0.25 to 2 µM |  |
| Cc1cc(CNc2nc(NC3(C(F)(F)F)CC3)c3nc(-c4ccc(F)cc4)ccc3n2)cc(S(N)(=O)=O)c1 [Example 82, 3-((6-(4-fluorophenyl)-4-(1-(trifluoromethyl)cyclopropyl-amino)pyrido[3,2-d]pyrimidin-2-ylamino)methyl)-5-methylbenzenesulfonamide] | > 10 µM | < 0.1 µM |  |
| COc1ccc(-c2ccc3nc(NCc4ccc(-n5cncn5)cc4)nc(NCC(F)(F)F)c3n2)cc1S(N)(=O)=O [Example 237, 5-(2-(4-(1H-1,2,4-triazol-1-yl)benzylamino)-4-(2,2,2-trifluoroethylamino)pyrido [3,2-d]pyrimidin-6-yl)-2-methoxybenzenesulfonamide] | > 10 µM | < 0.1 µM |  |
| NS(=O)(=O)c1ccc(CNc2nc(NCC(F)(F)F)c3nc(-c4ccc(F)cc4)ccc3n2)cc1C(F)(F)F [Example 9, 4-{[6-(4-Fluoro-phenyl)-4-(2,2,2-trifluoro-ethylamino)-pyrido[3,2-d]pyrimidin-2-ylamino]-methyl}-2-trifluoromethyl-benzenesulfonamide] |  | 0.25 to 2 µM | > 25 µM |
| Cc1ccc(-c2ccc3nc(NCc4ccc(-n5cncn5)cc4)nc(NCC(F)(F)F)c3n2)cc1S(C)(=O)=O [Example 179, N^2-(4-(1H-1,2,4-triazol-1-yl)benzyl)-6-(4-methyl-3-(methylsulfonyl)phenyl)-N^4-(2,2,2-trifluoroethyl)pyrido [3,2-d]pyrimidine-2,4-diamine] | > 10 µM | < 0.1 µM |  |
| Cc1ccc(-c2ccc3nc(N[C@H](C)c4ccc(S(N)(=O)=O)cc4)nc(NCC(F)(F)F)c3n2)cc1S(C)(=O)=O [Example 152, 4-((R)-1-(6-(4-methyl-3-(methylsulfonyl)phenyl)-4-(2,2,2-trifluoroethylamino)pyrido[3,2-d]pyrimidin-2-ylamino)ethyl)benzene-sulfonamide] | > 10 µM | < 0.1 µM |  |
| COc1ccc(-c2ccc3nc(NCc4ccc(S(N)(=O)=O)cc4)nc(NCC(F)(F)F)c3n2)cc1C(N)=O [Example 226, 4-((6-(3-(aminocarbonyl)l-4-methoxyphenyl)-4-(2,2,2-trifluoroethylamino)pyrido [3,2-d]pyrimidin-2-ylamino)methyl)benzene-sulfonamide] |  | < 0.1 µM |  |
